Test results as given in patent publication US10590113B2, “6-hydroxy-4-oxo-1,4-dihydropyrimidine-5-carboxamides as APJ agonists” (priority 2016, dated 2020).

Target: T1, human APJ receptor (Homo sapiens, UniProt P35414)
T1 construct: expressed in transfected cells; host or cells: HEK293
T1 sequence (P35414 1-380): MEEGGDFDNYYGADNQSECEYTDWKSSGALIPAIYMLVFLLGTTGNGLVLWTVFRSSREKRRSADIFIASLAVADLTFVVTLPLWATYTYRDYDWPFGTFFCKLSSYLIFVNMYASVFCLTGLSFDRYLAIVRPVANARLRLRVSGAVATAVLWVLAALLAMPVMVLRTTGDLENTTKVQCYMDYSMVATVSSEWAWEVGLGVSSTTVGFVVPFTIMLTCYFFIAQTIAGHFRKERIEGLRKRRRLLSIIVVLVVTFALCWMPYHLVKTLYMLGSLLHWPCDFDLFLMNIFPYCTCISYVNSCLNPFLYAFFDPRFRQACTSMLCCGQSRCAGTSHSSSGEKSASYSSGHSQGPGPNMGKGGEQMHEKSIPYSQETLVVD
Assay: Intracellular cAMP Accumulation Assay (APJ hcAMP, HTRF)
Assay type: cell-based
Conditions: HEK293 cells stably expressing human APJ receptor; inhibition of forskolin-mediated cAMP production; read-out: Human APJ cAMP EC50 potency range
Experimental: Intracellular cAMP Accumulation Assay
HEK293 cells stably expressing human APJ receptor were used to assess the activity of compounds. Cultured cells were detached and resuspended in the cAMP
Homogeneous Time-Resolved Fluorescence (HTRF) assay buffer (Cisbio cat; #62AM4PEJ). The assay was performed in 384-well assay plates (Perkin-Elmer; cat #6008289) according to assay protocol provided by the manufacturer. Serial dilutions of a compound together with assay buffer containing […] IBMX and 2 μM forskolin were added to each well containing 5,000 cells and incubated for 30 minutes at room temperature. Subsequently, cAMP D2 reagent was added in the lysis buffer followed by the EuK antibody (Cisbio; cat #62AM4PEJ) and incubated for 60 min. The fluorescence emission ratio was measured using fluorometer. The intracellular cAMP concentrations (compound-stimulated inhibition of forskolin-mediated cAMP production) were calculated by extrapolation from a standard curve using known cAMP concentrations. The EC50 values were obtained by fitting the data to a sigmoidal concentration-response curve with variable slope.
The EC50 value of each compound is presented at the end of the example description.
The biological activity of the exemplified compounds of this invention determined by the assay described above is shown at the end of each example.

| EC50 | Compound |
| --- | --- |
| 0.01 to 10 nM | C=CCCc1nc(O)c(C(=O)N2CC[C@H](c3ccccc3)C2)c(=O)n1-c1c(C)cccc1OC (single isomer, unassigned) [Example 8] |

Same assay, conditions: human APJ, cAMP accumulation; potency range class; read-out: hAPJ cAMP EC50 Potency range

| Compound | EC50 |
| --- | --- |
| COc1cccc(OC)c1-n1c(-c2cccc(Cl)c2)nc(=O)c(C(=O)N2CCC(c3ccccc3C#N)C2)c1O (single isomer, unassigned) [Example 237, 2-{1-[2-(3-chlorophenyl)-1-(2,6-dimethoxyphenyl)-6-hydroxy-4-oxo-1,4-dihydropyrimidine-5-carbonyl]pyrrolidin-3-yl}benzonitrile] | 0.01 to 10 nM |
| CCn1ccc(-c2nc(=O)c(C(=O)N3CCC(c4ncc(F)cc4F)C3)c(O)n2[C@H](c2cc(F)cc(F)c2)C(C)C)n1 (single isomer, unassigned) [Example 327] | 0.01 to 10 nM |
| CCc1cccc(CC)c1-n1c(-c2ccn(C(C)C)n2)nc(=O)c(C(=O)N2CCC(c3ncc(Cl)cc3F)C2)c1O (single isomer, unassigned) [Example 290, 5-[3-(5-chloro-3-fluoropyridin-2-yl)pyrrolidine-1-carbonyl]-1-(2,6-diethylphenyl)-6-hydroxy-2-[1-(propan-2-yl)-1H-pyrazol-3-yl]-1,4-dihydropyrimidin-4-one] | 0.01 to 10 nM |
| CCc1cccc(CC)c1-n1c(-c2csc(C)n2)nc(=O)c(C(=O)N2CC[C@@H](c3ccccc3)C2)c1O [Example 303, 1-(2,6-diethylphenyl)-6-hydroxy-2-(2-methyl-1,3-thiazol-4-yl)-5-[(3S)-3-phenylpyrrolidine-1-carbonyl]-1,4-dihydropyrimidin-4-one] | 0.01 to 10 nM |
| COc1cccc(OC)c1-n1c(-c2cccc(C)c2)nc(=O)c(C(=O)N2CCC(c3ccccc3C#N)C2)c1O (single isomer, unassigned) [Example 242, 2-{1-[1-(2,6-dimethoxyphenyl)-6-hydroxy-2-(3-methylphenyl)-4-oxo-1,4-dihydropyrimidine-5-carbonyl]pyrrolidin-3-yl}benzonitrile] | 0.01 to 10 nM |
| CCc1cccc(CC)c1-n1c(-c2ccn(C3CC3)n2)nc(=O)c(C(=O)N2CCC(c3ccc(F)cn3)C2)c1O (single isomer, unassigned) [Example 328, 2-(1-cyclopropyl-1H-pyrazol-3-yl)-1-(2,6-diethylphenyl)-5-[3-(5-fluoropyridin-2-yl)pyrrolidine-1-carbonyl]-6-hydroxy-1,4-dihydropyrimidin-4-one] | 0.01 to 10 nM |
| CCn1ccc(-c2nc(=O)c(C(=O)N3CC[C@H](c4ccccc4)C3)c(O)n2-c2c(OC)cccc2OC)n1 [Example 284, 1-(2,6-dimethoxyphenyl)-2-(1-ethyl-1H-pyrazol-3-yl)-6-hydroxy-5-[(3R)-3-phenylpyrrolidine-1-carbonyl]-1,4-dihydropyrimidin-4-one] | 0.01 to 10 nM |
| CCc1cccc(CC)c1-n1c(-c2csc(C(C)C)n2)nc(=O)c(C(=O)N2CCC(c3ncc(F)cc3F)C2)c1O (single isomer, unassigned) [Example 297, 1-(2,6-diethylphenyl)-5-[3-(3,5-difluoropyridin-2-yl)pyrrolidine-1-carbonyl]-6-hydroxy-2-[2-(propan-2-yl)-1,3-thiazol-4-yl]-1,4-dihydropyrimidin-4-one] | 0.01 to 10 nM |

Now from value to compound:

| EC50 | Compound |
| --- | --- |
| 0.01 to 10 nM | CCOCc1nc(=O)c(C(=O)N2CCC(c3c(F)cccc3F)C2)c(O)n1-c1c(OC)cccc1OC (single isomer, unassigned) [Example 354, 5-[3-(2,6-difluorophenyl)pyrrolidine-1-carbonyl]-1-(2,6-dimethoxyphenyl)-2-(ethoxymethyl)-6-hydroxy-1,4-dihydropyrimidin-4-one] |
| 0.01 to 10 nM | COc1cccc(OC)c1-n1c(-c2cccc(C)c2)nc(=O)c(C(=O)N2CCC(c3ncc(Cl)cc3F)C2)c1O (single isomer, unassigned) [Example 263, 5-[3-(5-chloro-3-fluoropyridin-2-yl)pyrrolidine-1-carbonyl]-1-(2,6-dimethoxyphenyl)-6-hydroxy-2-(3-methylphenyl)-1,4-dihydropyrimidin-4-one] |

Same assay, conditions: human APJ, intracellular cAMP accumulation; read-out: hAPJ cAMP EC50 Potency range

| Compound | EC50 |
| --- | --- |
| CC[C@@H](c1cc(F)cc(F)c1)n1c(-c2cnn(C)c2)nc(=O)c(C(=O)N2CCC(c3ncc(F)cc3F)C2)c1O (single isomer, unassigned) [Example 182] | 0.01 to 10 nM |
| COc1cccc(OC)c1-n1c(CCC2CC2)nc(=O)c(C(=O)N2CCN(Cc3cccc(F)c3F)CC2)c1O [Example 173, 2-(2-cyclopropylethyl)-5-{4-[(2,3-difluorophenyl)methyl]piperazine-1-carbonyl}-1-(2,6-dimethoxyphenyl)-6-hydroxy-1,4-dihydropyrimidin-4-one] | 0.01 to 10 nM |
| COc1cccc(OC)c1-n1c(COC(C)C)nc(=O)c(C(=O)N2CCC(c3ccccc3C)C2)c1O (single isomer, unassigned) [Example 105, 1-(2,6-dimethoxyphenyl)-6-hydroxy-5-[3-(2-methylphenyl)pyrrolidine-1-carbonyl]-2-[(propan-2-yloxy)methyl]-1,4-dihydropyrimidin-4-one] | 0.01 to 10 nM |
| CC[C@@H](c1cc(F)cc(F)c1)n1c(-c2nc(C)cs2)nc(=O)c(C(=O)N2CCC(c3ncc(F)cc3F)C2)c1O (single isomer, unassigned) [Example 210] | 0.01 to 10 nM |
| COc1cccc(OC)c1-n1c(COC2CC2)nc(=O)c(C(=O)N2CCC(c3ccccc3C)C2)c1O (single isomer, unassigned) [Example 19, 2-(cyclopropoxymethyl)-1-(2,6-dimethoxyphenyl)-6-hydroxy-5-(3-(o-tolyl)pyrrolidine-1-carbonyl)pyrimidin-4(1H)-one] | 0.01 to 10 nM |
| COc1cccc(OC)c1-n1c(COC(C)C)nc(=O)c(C(=O)N2CC[C@H](c3ccccc3)C2)c1O [Example 12, (R)-1-(2,6-dimethoxyphenyl)-6-hydroxy-2-(isopropoxymethyl)-5-(3-phenylpyrrolidine-1-carbonyl)pyrimidin-4(1H)-one] | 0.01 to 10 nM |
| CCCCc1nc(=O)c(C(=O)N2CC[C@H](c3ccccc3)C2)c(O)n1C(C)c1cccnc1 (stereo partly drawn) [Example 140, 2-butyl-6-hydroxy-5-[(3R)-3-phenylpyrrolidine-1-carbonyl]-3-[1-(pyridin-3-yl)ethyl]-3,4-dihydropyrimidin-4-one] | 10 to 100 nM |

More lines, now with the values ahead:

| EC50 | Compound |
| --- | --- |
| 0.01 to 10 nM | CCOCc1nc(=O)c(C(=O)N2CCC(c3ccccn3)C2)c(O)n1-c1c(OC)cccc1OC (single isomer, unassigned) [Example 54, 1-(2,6-dimethoxyphenyl)-2-(ethoxymethyl)-6-hydroxy-5-[3-(pyridin-2-yl)pyrrolidine-1-carbonyl]-1,4-dihydropyrimidin-4-one] |
| 0.01 to 10 nM | COc1cccc(OC)c1-n1c(CCC2CC2)nc(=O)c(C(=O)N2CCC(c3ccc(F)cn3)C2)c1O (single isomer, unassigned) [Example 175, 2-(2-cyclopropylethyl)-1-(2,6-dimethoxyphenyl)-5-[3-(5-fluoropyridin-2-yl)pyrrolidine-1-carbonyl]-6-hydroxy-1,4-dihydropyrimid in-4-one] |
| 0.01 to 10 nM | COc1cccc(OC)c1-n1c(COC(C)C)nc(=O)c(C(=O)N2CCC(c3c(F)cccc3F)C2)c1O (single isomer, unassigned) [Example 166, 5-[3-(2,6-difluorophenyl)pyrrolidine-1-carbonyl]-1-(2,6-dimethoxyphenyl)-6-hydroxy-2-[(propan-2-yloxy)methyl]-1,4-dihydropyrimidin-4-one] |
| 0.01 to 10 nM | COc1cccc(OC)c1-n1c(CCC2CC2)nc(=O)c(C(=O)N2CCC(c3ncc(F)cc3F)C2)c1O (single isomer, unassigned) [Example 169, 2-(2-cyclopropylethyl)-5-[3-(3,5-difluoropyridin-2-yl)pyrrolidine-1-carbonyl]-1-(2,6-dimethoxyphenyl)-6-hydroxy-1,4-dihydropyrimidin-4-one] |

Same assay, conditions: read-out: hAPJ cAMP EC50 Potency range

| EC50 | Compound |
| --- | --- |
| 0.01 to 10 nM | CCCCc1nc(=O)c(C(=O)N2CCC(Oc3cccc(F)c3Cl)CC2)c(O)n1-c1c(OC)cccc1OC [Example 383, 2-butyl-5-(4-(2-chloro-3-fluorophenoxy)piperidine-1-carbonyl)-1-(2,6-dimethoxyphenyl)-6-hydroxypyrimidin-4(1H)-one] |
| 0.01 to 10 nM | CCOCc1nc(=O)c(C(=O)N2CCC(c3ncc(F)cc3F)C2)c(O)n1-c1c(OC)cccc1OC (single isomer, unassigned) [Example 372, 5-(3-(3,5-difluoropyridin-2-yl)pyrrolidine-1-carbonyl)-1-(2,6-dimethoxyphenyl)-2-(ethoxymethyl)-6-hydroxypyrimidin-4(1H)-one] |
